Source: US11690822B2, “Method for treating non-compaction cardiomyopathy” (EXCELSIOR PHARMATECH LABS, priority 2018, dated 2023)

What was measured:
[1] = system: LVNC cardiomyocytes; experiment: Seahorse assay of mitochondrial function (OCR, ECAR) in LVNC-hiPSC-derived cardiomyocytes; format: cell-based, human; conditions: 5 μM, iH LVNC cardiomyocytes, FIG. 2C
From the text: Human induced pluripotent stem cell (hiPSC) lines respectively derived from patients with left ventricular non-compaction cardiomyopathy (LVNC) and a normal healthy […] were reprogrammed through two approaches; one line of each patient was reprogrammed from skin cells by lentivirus carrying four Yamanaka factors (Klf4, Myc, Sox2, Oct4; conducted by Dr. Hong-Nerng Ho at NTU) and the other line was reprogrammed from peripheral blood monocytes (PBMC) by Sendai virus carrying the four Yamanaka factors (conducted by Dr. Joseph C. Wu at Stanford University). Patients consented to collect patients' tissues/blood cells for genetic examination, reprogramming to hiPSC, and pharmacological studies. […] Cell shortening was measured by the Ionoptix system (Westwood, Mass., USA), and mitochondrial function was assessed by an Agilent seahorse analyzer (Seahorse Bioscience, MA, USA).
Seahorse assay was performed on day 70 to measure mitochondrial OCR (Oxygen Consumption Rate) and ECAR (Extracellular Acidification Rate) under the conditions in the sequential adding of the XF mito stress test kit with the indicated reagents by the arrows. […] The relationship of OCR vs. ECAR was measured under the conditions of basal (before oligomycin) and maximum respiratory capacity (after FCCP).

[2] = system: LVNC cardiomyocytes; experiment: Cell shortening (Ionoptix) and inotropic response to isoprenaline in LVNC-hiPSC-CMs; format: cell-based, human; conditions: 5 μM; isoprenaline 0.03, 0.1, 1 μM; treatment day 30 through day 70; FIG. 3B
From the text: Human induced pluripotent stem cell (hiPSC) lines respectively derived from patients with left ventricular non-compaction cardiomyopathy (LVNC) and a normal healthy […] were reprogrammed through two approaches; one line of each patient was reprogrammed from skin cells by lentivirus carrying four Yamanaka factors (Klf4, Myc, Sox2, Oct4; conducted by Dr. Hong-Nerng Ho at NTU) and the other line was reprogrammed from peripheral blood monocytes (PBMC) by Sendai virus carrying the four Yamanaka factors (conducted by Dr. Joseph C. Wu at Stanford University). Patients consented to collect patients' tissues/blood cells for genetic examination, reprogramming to hiPSC, and pharmacological studies. Drug effect was validated via testing the same drug at the same dose in human cardiomyocytes derived from the two lines of the same patient with at least three independent repeats in each line. Cell shortening was measured by the Ionoptix system (Westwood, Mass., USA), and mitochondrial function was assessed by an Agilent seahorse analyzer (Seahorse Bioscience, MA, USA).

[3] = system: LVNC cardiomyocytes; experiment: Proteomic analysis (LC-MS/MS) of LVNC cardiomyocytes treated with or without simvastatin; format: cell-based, human
Procedure: The samples were further digested by trypsin. After being desalted and dried, LC-MS/MS analysis was performed by the LTQ-Orbitrap Velos mass spectrometer system. The peptide and protein group IDs were obtained by MASCOT database searching with precursor mass accuracy of 7 ppm and MS/MS accuracy of 0.5 Da. The large mass-spectrometric raw data were further analyzed by the MaxQuant software based on the Uniprot human database with a label-free quantification method and followed by the statistical analysis using the Perseus software.

[4] = system: Tnnt2^R154W/+::Mypn^S1291T/+ LVNC mice; experiment: Echocardiography of cardiac function (LVEF) in LVNC mice; format: in vivo, mouse
Procedure: Tnnt2(R154W)- and Mypn(S1291T)-knockin mice on C57BL/6j background were generated by Gene Knockout Mouse Core Laboratory of National Taiwan University Center of Genomic Medicine. Genetically heterozygous LVNC mice (Tnnt2(R154W)^+/−:: Mypn(S1291T)^+/−) were obtained from crossing Tnnt2(R154W)^+/− and Mypn(S1291T)^+/− mice. PCR and DNA sequencing were performed to confirm the genotype. All animal procedures and protocols were approved by AAALAC-accredited facility.
The cardiac motion function of LVNC mice was measured through echocardiography in M-mode by the VisualSonic vevo 2100 imaging system (VisualSonic Inc., Toronto, Canada). Cardiac glucose metabolic rate of LVNC mice was measured by dynamic small animal positron emission tomography (PET) observation under anesthetization by 2% isoflurane inhalation. ^18F-FDG (fluorodeoxyglucose 18F) uptake in LVNC mouse heart was measured for the analysis of cardiac glucose metabolic rate (MRGlu) by dynamic small animal positron emission tomography (PET) to examine the changes in cardiometabolism.
Repeated measures two-way ANOVA with multiple comparisons by the Tukey test was used to distinguish the difference in cell shortening velocity between DMSO- and simvastatin-groups on day 50 and day 70 in LVNC-hiPSC-CMs of iFa and iH. […]

Cc1cc(C)c(CNC(=O)c2cc(-c3ccc(N4CCN(C)CC4)nc3)cc3c2c(C)cn3C(C)C)c(=O)[nH]1 [GSK503]
OCR and ECAR of LVNC cardiomyocytes (mitochondrial function) [1]: does not significantly improve OCR or ECAR
OCR and ECAR of LVNC cardiomyocytes (mitochondrial function) ([1]; listed as gsk): did not change cardiac mitochondrial dysfunction

O=C(CCCCCCC(=O)Nc1ccccc1)NO [SAHA]
cardiac contraction and positive inotropic response to isoprenaline-induced β-stimulation [2]: unable to improve LVNC cardiac functions

CC(C)c1c(C(=O)Nc2ccccc2)c(-c2ccccc2)c(-c2ccc(F)cc2)n1CC[C@@H](O)C[C@@H](O)CC(=O)O [atorvastatin]
cardiac contraction and positive inotropic response to isoprenaline-induced β-stimulation [2]: the efficacy of simvastatin is better than those of the other statins

CC[C@H](C)C(=O)O[C@H]1C[C@@H](C)C=C2C=C[C@H](C)[C@H](CC[C@@H]3C[C@@H](O)CC(=O)O3)[C@H]21 [lovastatin]
cardiac contraction and positive inotropic response to isoprenaline-induced β-stimulation [2]: the efficacy of simvastatin is better than those of the other statins

CCC(C)(C)C(=O)O[C@H]1C[C@@H](C)C=C2C=C[C@H](C)[C@H](CC[C@@H]3C[C@@H](O)CC(=O)O3)[C@H]21 [simvastatin]
number of proteins highly expressed in both healthy/iH,ctrl and iH,s/iH,ctrl ([3]; iH LVNC cardiomyocytes, FIG. 4C): 69 proteins
number of proteins significantly upregulated in both iF,s/iF,ctrl and iH,s/iH,ctrl ([3]; two LVNC patients (iFa & iH), FIG. 4D): 27 proteins
slope of linear regression of LVEF % vs. day ([4]; S(d1-84): treated initial 84 days, then 42 days drug holiday, P=0.1326, R square=0.3352, not significantly deviated from zero): 0.05031
slope of linear regression of LVEF % vs. day ([4]; S(d1-126): continuous treatment 126 days, 3.5 mg/kg/day osmotic pump, P=0.0297, R square=0.6445, significantly deviated from zero): 0.1098
